This is an account of results in patent publication US20200055883A1, “CYCLIC DI-NUCLEOTIDES DERIVATIVE FOR THE TREATMENT OF CANCER” (Eisai R&D Management Co., Ltd., priority 2017, published 2020).

Structures are written as SMILES.

This assay has as its target Human STING HAQ (Homo sapiens, UniProt Q86WV6, G230A/H232R/R293Q/R71H). Nature of the assay: HAQ STING agonist activity reporter assay (THP1-Dual cells). On the technique in general: In a reporter assay the amount or activity of a reporter protein is the signal.
Where [1] appears, read: hSTING EC50 (μM) HAQ, Table 6, ammonium salt form, except Compounds 26, 33, 34 tested as bis-TEA salts.
[2] abbreviates: Human STING EC50 (μM) HAQ, Table 5, ammonium salt form of each compound, 20 hrs.
The mark [3] stands for this setting: hSTING EC50 (μM) HAQ, Table 8, ammonium salt form of each compound.

Sequence of Human STING HAQ (Q86WV6 whole entry R71H/G230A/H232R/R293Q): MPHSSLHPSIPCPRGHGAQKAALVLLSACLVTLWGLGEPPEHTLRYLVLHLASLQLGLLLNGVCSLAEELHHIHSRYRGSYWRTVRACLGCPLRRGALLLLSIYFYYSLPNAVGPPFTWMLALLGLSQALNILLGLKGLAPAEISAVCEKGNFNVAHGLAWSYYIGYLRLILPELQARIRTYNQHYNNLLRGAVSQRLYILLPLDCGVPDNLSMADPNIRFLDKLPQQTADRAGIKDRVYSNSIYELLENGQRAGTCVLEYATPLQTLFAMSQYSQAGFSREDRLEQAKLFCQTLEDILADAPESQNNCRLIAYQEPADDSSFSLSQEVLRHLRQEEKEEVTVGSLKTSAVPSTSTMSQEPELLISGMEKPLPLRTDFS

For orientation: EC50 means the concentration giving half of the maximal effect. In the case of `O=P1(S)OC[C@H]2O[C@@H]3[C@H](F)[C@@H]2OP(=O)(S)OC[C@H]2O[C@H]([C@H](F)[C@@H]2O1)n1cnc2c(ncnc21)NC/C=C/COc1ncnc2c1ncn23` (single isomer, unassigned) [Compound 20], the EC50 under setting [1] was determined as 2.8 µM. As to `O=P1(S)OC[C@H]2O[C@@H]3[C@H](F)[C@@H]2OP(=O)(S)OC[C@H]2O[C@H]([C@H](F)[C@@H]2O1)n1cnc2c(ncnc21)NC/C=C/COc1ncnc2c1ncn23` (single isomer, unassigned) [Compound 19], under setting [1], the EC50 worked out at 94.1 µM.

Take `O=[P@]1(S)OC[C@H]2OC3[C@H](F)[C@@H]2O[P@](=O)(S)OC[C@H]2O[C@H]([C@H](F)[C@@H]2O1)n1cnc2c(ncnc21)CC/C=C/CCc1ncnc2c1ncn23` [Compound 33]: the EC50 under setting [1] amounted to 21.5 µM. In the case of `O=[P@]1(S)OC[C@H]2OC3[C@H](O)[C@@H]2O[P@](=O)(S)OC[C@H]2O[C@H]([C@H](O1)[C@@H]2O)n1cnc2c(ncnc21)NC/C=C/CNc1ncnc2c1ncn23` [Compound 13], the EC50 (Human STING EC50 (μM) HAQ, Table 4, ammonium salt form of each compound, 20 hrs) came to 26.7 µM. On to `O=P1(S)OC[C@H]2O[C@@H]3[C@H](F)[C@@H]2OP(=O)(S)OC[C@H]2OC([C@H](F)[C@@H]2O1)n1cnc2c(ncnc21)NCC/C=C/CNc1ncnc2c1ncn23` (single isomer, unassigned) [Compound 12], for which the EC50 under setting [2] was 8.2 µM. `Nc1nc2c3ncn(c3n1)[C@@H]1O[C@@H]3COP(O)(=S)O[C@H]4[C@@H](F)[C@@H](O[C@@H]4COP(O)(=S)O[C@H]3[C@H]1F)n1cnc3c(ncnc31)NC/C=C/CO2` (single isomer, unassigned) [Compound 22]: a half-maximal effect (hSTING EC50 (μM) HAQ) (EC50) was put at 41.2 µM.

With `O=P1(S)N[C@@H]2[C@H]3COP(=O)(S)N[C@H]4[C@@H](O)[C@@H](O[C@@H]4CO1)n1cnc4c(ncnc41)NC/C=C/CNc1ncnc4c1ncn4C(O3)[C@@H]2O` (stereo partly shown) [Compound 39], the EC50 under setting [3] was determined as 29.6 µM. Molecule `O=P1(O)OC[C@H]2OC3[C@H](F)[C@@H]2O[P@@](O)(=S)OC[C@H]2O[C@H]([C@H](F)[C@@H]2O1)n1cnc2c(ncnc21)NC/C=C/CNc1ncnc2c1ncn23` [Compound 27] returned an EC50 (hSTING EC50 (μM) HAQ) of 9.8 µM. As for `O=P1(S)OC[C@H]2OC3[C@H](OP(=O)(S)OC[C@H]4O[C@H]([C@H](O1)[C@@H]4O)n1cnc4c(ncnc41)NC/C=C/CNc1ncnc4c1ncn43)[C@@H]2O` (stereo partly shown) [Compound 31], the EC50 (hSTING EC50 (μM) HAQ, Table 7, ammonium salt form of each compound) was 20.2 µM. On to `O=P1(O)OC[C@H]2OC3[C@H](F)[C@@H]2O[P@](O)(=S)OC[C@H]2O[C@H]([C@H](F)[C@@H]2O1)n1cnc2c(ncnc21)NC/C=C/CNc1ncnc2c1ncn23` [Compound 28], for which a half-maximal response (hSTING EC50 (μM) HAQ) (EC50) required 10.2 µM. `O=[P@]1(S)OC[C@H]2OC3[C@H](F)[C@@H]2O[P@](=O)(S)OC[C@H]2O[C@H]([C@H](F)[C@@H]2O1)n1cnc2c(ncnc21)NCC#CCNc1ncnc2c1ncn23` [Compound 29]: under setting [1], the EC50 is 0.62 µM. `O=[P@]1(S)N[C@@H]2[C@H]3CO[P@](=O)(S)N[C@H]4[C@@H](O)[C@@H](O[C@@H]4CO1)n1cnc4c(ncnc41)NC/C=C/CNc1ncnc4c1ncn4C(O3)[C@@H]2O` [Compound 38]: under setting [3], the EC50 is 79.9 µM.

`O=P1(S)OC[C@H]2O[C@@H]3[C@H](F)[C@@H]2OP(=O)(S)OC[C@H]2OC([C@H](F)[C@@H]2O1)n1cnc2c(ncnc21)NCC/C=C/CNc1ncnc2c1ncn23` (single isomer, unassigned) [Compound 11]: the EC50 under setting [2] worked out at 6.8 µM.

`Nc1nc2c3ncn(c3n1)[C@@H]1O[C@@H]3COP(O)(=S)O[C@H]4[C@@H](F)[C@@H](O[C@@H]4COP(O)(=S)O[C@H]3[C@H]1F)n1cnc3c(ncnc31)NC/C=C/CO2` (single isomer, unassigned) [Compound 21] gave an EC50 (hSTING EC50 (μM) HAQ) of 83.3 µM. Take `O=[P@@]1(S)OC[C@H]2O[C@@H]3[C@H](F)[C@@H]2O[P@](=O)(S)OC[C@H]2OC([C@H](F)[C@@H]2O1)n1cnc2c(ncnc21)OC/C=C/COc1ncnc2c1ncn23` [Compound 26]: the EC50 under setting [1] came to 2.3 µM. `O=[P@]1(S)OC[C@H]2OC3[C@H](F)[C@@H]2O[P@](=O)(S)OC[C@H]2O[C@H]([C@H](F)[C@@H]2O1)n1cnc2c(ncnc21)NCC1NC1CNc1ncnc2c1ncn23` (single isomer, unassigned) [Compound 36]: under setting [1], the EC50 amounted to 31.4 µM.
